Results as given in US10258639B2, “Methods for treating insulin resistance and for sensitizing patients to GLP1 agonist therapy” (Research Development Foundation, priority 2014, dated 2019).

Tested on: INS1 cells
Experiment: RNAseq of INS1 cells grown in chronic high glucose compared to controls and stimulated with FSK (Table 2)
Assay type: cell-based, rat
Protocol: INS-1 insulinoma cells were cultured in RPMI (corning cellgro) containing 10% fetal bovine serum (Gemini Bio Products), 100 μg/mL penicillin-streptomycin and 1 mM sodium pyruvate (corning cellgro). MIN6 cells were grown in DMEM (corning cellgro) with 10% FBS, 100 μg/mL penicillin-streptomycin and 70 uM beta-mercaptoethanol. For chronic glucose experiments, cells were maintained under low (2.8 mM) or high (20 mM) glucose for 3 days. Exendin-4 (10 nM), Forskolin (10 μM), KCl (40 mM), DMOG (1 mM) and rapamycin (50 nM) were added to cells as indicated. Cellular cAMP levels were measured using an ELISA kit (Cayman Chemical Company) according to manufacturer's instructions. Total RNAs from cells or primary islets were extracted using Trizol and cDNA was generated using the Transcriptor First Strand cDNA Synthesis kit (Roche Applied Science). cDNAs were quantified on a lightcycler 480 instrument (Roche Applied Science). Gene expression data were presented relative to the expression of housekeeping gene L32 (rat samples) and 18S (mouse and human islets). RNA-Seq libraries were prepared using the mRNA isolation protocol and the NEBNext-Ultra kits from New England Biolabs following the manufacturer's protocols. Libraries were quantitated by Qubit (Invitrogen), and run on a MiSeq instrument with paired-end 75 bp reads using v3 chemistry (Illumina) Data were analyzed by tophat2 and cuffdiff against the mouse mm10 genome build. The GEO accession number for RNAseq studies reported in the paper is GSE60158.

C=C[C@@]1(C)CC(=O)[C@]2(O)[C@@]3(C)[C@@H](O)CCC(C)(C)[C@@H]3[C@H](O)[C@H](OC(C)=O)[C@@]2(C)O1 [FSK, Forskolin]
Accsl RNAseq value (High glucose, FSK): 0.1
Acpt RNAseq value (High glucose, FSK): 0.2
Acsl4 RNAseq value (High glucose, FSK): 24.1
Agt RNAseq value (High glucose, FSK): 4.7
Ahi1 RNAseq value (High glucose, FSK): 18.6
Bhlha15 RNAseq value (High glucose, FSK): 10.9
Btg3 RNAseq value (High glucose, FSK): 63.0
Bysl RNAseq value (High glucose, FSK): 56.8
Canx RNAseq value (High glucose, FSK): 134.4
Ccni RNAseq value (High glucose, FSK): 240.1
Chd1 RNAseq value (High glucose, FSK): 24.3
Chrne RNAseq value (High glucose, FSK): 0.0
Ctf1 RNAseq value (High glucose, FSK): 0.4
Cxcl2 RNAseq value (High glucose, FSK): 1.2
Cyth3 RNAseq value (High glucose, FSK): 54.2
Dkc1 RNAseq value (High glucose, FSK): 97.6
Epha3 RNAseq value (High glucose, FSK): 0.0
Epor RNAseq value (High glucose, FSK): 0.1
Fam49a RNAseq value (High glucose, FSK): 0.1
Ficd RNAseq value (High glucose, FSK): 15.9
Fmc1 RNAseq value (High glucose, FSK): 28.5
Fn1 RNAseq value (High glucose, FSK): 320.4
Gabre RNAseq value (High glucose, FSK): 0.0
Gars RNAseq value (High glucose, FSK): 308.1
Ggt5 RNAseq value (High glucose, FSK): 0.0
Gnl3 RNAseq value (High glucose, FSK): 23.1
Gnmt RNAseq value (High glucose, FSK): 0.0
Gzmm RNAseq value (High glucose, FSK): 0.0
Hmcn1 RNAseq value (High glucose, FSK): 0.0
Hmga2 RNAseq value (High glucose, FSK): 0.0
Hnrnpa1 RNAseq value (High glucose, FSK): 35.4
Hnrpdl RNAseq value (High glucose, FSK): 165.3
Hs3st2 RNAseq value (High glucose, FSK): 1.0
Hspa4 RNAseq value (High glucose, FSK): 113.8
Hspd1 RNAseq value (High glucose, FSK): 63.0
Icam2 RNAseq value (High glucose, FSK): 0.0
Il13ra1 RNAseq value (High glucose, FSK): 0.2
Il28ra RNAseq value (High glucose, FSK): 6.8
Kcnb1 RNAseq value (High glucose, FSK): 13.1
Kcnj13 RNAseq value (High glucose, FSK): 0.8
Kdm1b RNAseq value (High glucose, FSK): 8.1
Kif9 RNAseq value (High glucose, FSK): 0.0
LOC683722 RNAseq value (High glucose, FSK): 7.9
LOC686295 RNAseq value (High glucose, FSK): 3.8
LOC689959 RNAseq value (High glucose, FSK): 7.2
Lrfn5 RNAseq value (High glucose, FSK): 0.2
Map3k4 RNAseq value (High glucose, FSK): 22.7
Mef2d RNAseq value (High glucose, FSK): 175.0
Megf10 RNAseq value (High glucose, FSK): 0.2
Msn RNAseq value (High glucose, FSK): 3.2
Myof RNAseq value (High glucose, FSK): 0.1
Nckap1l RNAseq value (High glucose, FSK): 1.8
Nkx2-2 RNAseq value (High glucose, FSK): 93.4
Nolc1 RNAseq value (High glucose, FSK): 192.8
Notch4 RNAseq value (High glucose, FSK): 0.6
Ormdl3 RNAseq value (High glucose, FSK): 128.5
Otop3 RNAseq value (High glucose, FSK): 0.0
Pabpc6 RNAseq value (High glucose, FSK): 0.1
Pde3b RNAseq value (High glucose, FSK): 45.5
Pde4dip RNAseq value (High glucose, FSK): 29.3
Pdrg1 RNAseq value (High glucose, FSK): 28.6
Plcb2 RNAseq value (High glucose, FSK): 0.0
RGD1309079 RNAseq value (High glucose, FSK): 0.8
RGD1311084 RNAseq value (High glucose, FSK): 0.0
Rab3gap2 RNAseq value (High glucose, FSK): 29.1
Rab11fip1 RNAseq value (High glucose, FSK): 8.3
Rap2a RNAseq value (High glucose, FSK): 12.9
Rho RNAseq value (High glucose, FSK): 0.1
Rpl7a RNAseq value (High glucose, FSK): 0.7
Rpl17 RNAseq value (High glucose, FSK): 126.3
Rrs1 RNAseq value (High glucose, FSK): 71.4
Sgce RNAseq value (High glucose, FSK): 0.3
Smad1 RNAseq value (High glucose, FSK): 29.8
Smad3 RNAseq value (High glucose, FSK): 1.6
Snapc1 RNAseq value (High glucose, FSK): 2.7
Sncaip RNAseq value (High glucose, FSK): 4.9
Spon2 RNAseq value (High glucose, FSK): 0.3
Srp54 RNAseq value (High glucose, FSK): 27.8
Stard8 RNAseq value (High glucose, FSK): 0.4
Syp RNAseq value (High glucose, FSK): 447.7
T2 RNAseq value (High glucose, FSK): 0.1
Taf1a RNAseq value (High glucose, FSK): 6.7
Tex38 RNAseq value (High glucose, FSK): 0.1
Tmem114 RNAseq value (High glucose, FSK): 0.0
Tomm20 RNAseq value (High glucose, FSK): 70.0
Tpp2 RNAseq value (High glucose, FSK): 12.3
Twistnb RNAseq value (High glucose, FSK): 9.1
Usp9x RNAseq value (High glucose, FSK): 40.0
Vps37b RNAseq value (High glucose, FSK): 32.2
Zfp830 RNAseq value (High glucose, FSK): 17.0
Zfp385d RNAseq value (High glucose, FSK): 0.1
Accsl Fold (High glucose, FSK/control): 0.9
Acpt Fold (High glucose, FSK/control): 3.0
Acsl4 Fold (High glucose, FSK/control): 1.6
Agt Fold (High glucose, FSK/control): 1.8
Ahi1 Fold (High glucose, FSK/control): 1.5
Bhlha15 Fold (High glucose, FSK/control): 1.1
Btg3 Fold (High glucose, FSK/control): 1.2
Bysl Fold (High glucose, FSK/control): 1.5
Canx Fold (High glucose, FSK/control): 1.1
Ccni Fold (High glucose, FSK/control): 1.5
Chd1 Fold (High glucose, FSK/control): 1.4
Chrne Fold (High glucose, FSK/control): 0.0
Ctf1 Fold (High glucose, FSK/control): 1.8
Cxcl2 Fold (High glucose, FSK/control): 3.2
Cyth3 Fold (High glucose, FSK/control): 3.2
Dkc1 Fold (High glucose, FSK/control): 1.2
Epha3 Fold (High glucose, FSK/control): 0.5
Epor Fold (High glucose, FSK/control): 1.0
Fam49a Fold (High glucose, FSK/control): 1.0
Ficd Fold (High glucose, FSK/control): 1.2
Fmc1 Fold (High glucose, FSK/control): 1.1
Fn1 Fold (High glucose, FSK/control): 2.7
Gars Fold (High glucose, FSK/control): 1.8
Gnl3 Fold (High glucose, FSK/control): 1.3
Gzmm Fold (High glucose, FSK/control): 0.0
Hmcn1 Fold (High glucose, FSK/control): 0.3
Hmga2 Fold (High glucose, FSK/control): 0.0
Hnrnpa1 Fold (High glucose, FSK/control): 1.4
Hnrpdl Fold (High glucose, FSK/control): 1.5
Hs3st2 Fold (High glucose, FSK/control): 2.6
Hspa4 Fold (High glucose, FSK/control): 1.2
Hspd1 Fold (High glucose, FSK/control): 1.0
Icam2 Fold (High glucose, FSK/control): 0.0
Il13ra1 Fold (High glucose, FSK/control): 1.0
Il28ra Fold (High glucose, FSK/control): 1.7
Kcnb1 Fold (High glucose, FSK/control): 0.8
Kcnj13 Fold (High glucose, FSK/control): 3.0
Kdm1b Fold (High glucose, FSK/control): 1.4
Kif9 Fold (High glucose, FSK/control): 0.7
LOC683722 Fold (High glucose, FSK/control): 1.8
LOC686295 Fold (High glucose, FSK/control): 1.3
LOC689959 Fold (High glucose, FSK/control): 0.9
Lrfn5 Fold (High glucose, FSK/control): 1.2
Map3k4 Fold (High glucose, FSK/control): 1.3
Mef2d Fold (High glucose, FSK/control): 1.8
Msn Fold (High glucose, FSK/control): 1.0
Myof Fold (High glucose, FSK/control): 0.6
Nckap1l Fold (High glucose, FSK/control): 0.9
Nkx2-2 Fold (High glucose, FSK/control): 2.2
Nolc1 Fold (High glucose, FSK/control): 1.2
Notch4 Fold (High glucose, FSK/control): 1.7
Ormdl3 Fold (High glucose, FSK/control): 1.1
Otop3 Fold (High glucose, FSK/control): 0.0
Pabpc6 Fold (High glucose, FSK/control): 4.4
Pde3b Fold (High glucose, FSK/control): 1.9
Pde4dip Fold (High glucose, FSK/control): 1.4
Pdrg1 Fold (High glucose, FSK/control): 1.0
Plcb2 Fold (High glucose, FSK/control): 1.0
RGD1309079 Fold (High glucose, FSK/control): 1.3
Rab3gap2 Fold (High glucose, FSK/control): 1.3
Rab11fip1 Fold (High glucose, FSK/control): 1.9
Rap2a Fold (High glucose, FSK/control): 2.2
Rho Fold (High glucose, FSK/control): 0.7
Rpl7a Fold (High glucose, FSK/control): 2.5
Rpl17 Fold (High glucose, FSK/control): 1.0
Rrs1 Fold (High glucose, FSK/control): 1.5
Sgce Fold (High glucose, FSK/control): 0.8
Smad1 Fold (High glucose, FSK/control): 1.4
Smad3 Fold (High glucose, FSK/control): 0.7
Snapc1 Fold (High glucose, FSK/control): 1.2
Sncaip Fold (High glucose, FSK/control): 1.4
Spon2 Fold (High glucose, FSK/control): 0.7
Srp54 Fold (High glucose, FSK/control): 1.1
Stard8 Fold (High glucose, FSK/control): 2.3
Syp Fold (High glucose, FSK/control): 1.5
T2 Fold (High glucose, FSK/control): 0.7
Taf1a Fold (High glucose, FSK/control): 1.3
Tex38 Fold (High glucose, FSK/control): 0.3
Tomm20 Fold (High glucose, FSK/control): 1.4
Tpp2 Fold (High glucose, FSK/control): 1.3
Twistnb Fold (High glucose, FSK/control): 1.5
Usp9x Fold (High glucose, FSK/control): 1.5
Vps37b Fold (High glucose, FSK/control): 1.3
Zfp830 Fold (High glucose, FSK/control): 1.1
Zfp385d Fold (High glucose, FSK/control): 0.2
Accsl RNAseq value (Low glucose, FSK): 0.3
Acpt RNAseq value (Low glucose, FSK): 0.3
Acsl4 RNAseq value (Low glucose, FSK): 28.6
